Experimental findings from ChEMBL document CHEMBL4706479, “Novel Aryloxyethyl Derivatives of 1-(1-Benzoylpiperidin-4-yl)methanamine as the Extracellular Regulated Kinases 1/2 (ERK1/2) Phosphorylation-Preferring Serotonin 5-HT Receptor-Biased Agonists with Robust Antidepressant-like Activity” (J Med Chem, 2019) are described below.

The structures appear in SMILES notation.

The term Emax denotes the greatest response seen or fitted, relative to the assay's reference.

Series [1] deals with Rattus norvegicus. Description: Antidepressant-like activity in Wistar rat assessed as minimum effective dose causing reduction in immobility time after sc administration with compound 60 mins prior to testing and measured for 5 mins test period by Porsolt-forced swim test. The format is functional. To be noted: 1 h, read-out: MED.
In series [2] the target is T1, 5-hydroxytryptamine receptor 1A (Homo sapiens) (UniProt P08908).
T1 sequence (whole entry): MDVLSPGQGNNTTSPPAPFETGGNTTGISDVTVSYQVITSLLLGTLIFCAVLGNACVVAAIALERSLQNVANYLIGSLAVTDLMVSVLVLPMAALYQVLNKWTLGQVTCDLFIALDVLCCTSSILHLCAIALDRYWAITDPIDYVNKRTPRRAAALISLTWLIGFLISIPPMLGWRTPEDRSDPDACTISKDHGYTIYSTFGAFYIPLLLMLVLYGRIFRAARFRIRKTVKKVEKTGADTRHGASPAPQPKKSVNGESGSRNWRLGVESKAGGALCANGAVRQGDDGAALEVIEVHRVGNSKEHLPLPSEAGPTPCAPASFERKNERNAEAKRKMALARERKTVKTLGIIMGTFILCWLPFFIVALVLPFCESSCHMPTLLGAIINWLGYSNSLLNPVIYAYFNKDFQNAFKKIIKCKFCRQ
The experiment in a line: Biased agonist activity at human recombinant 5-HT1A receptor stably expressed in CHO-K1 cells assessed as increase in ERK1/2 phosphorylation levels incubated for 15 mins by Alphalisa assay relative to serotonin. The format is cell-based. To be noted: filed as agonist. For orientation: In Alpha technology, singlet oxygen from a donor bead excites a nearby acceptor bead.

The nature of series [3]: Toxicity in Wistar rat assessed as minimum effective dose causing effect on flat body posture administered subcutaneously with compound and observed after 60 mins post treatment. To be noted: in vivo, sc, 1 h.
The test system of series [4] is Rattus norvegicus. The experiment in a line: Antidepressant-like activity in Wistar rat assessed as reduction in immobility time at 0.63 mg/kg, sc administered 60 mins prior to testing and measured for 5 mins test period by Porsolt-forced swim test. To be noted: time 65 min, 1.083 h. Further details: scale not given: the % may be the effect or the level left. In kind it is functional.

Series [5] concerns the target T1, 5-hydroxytryptamine receptor 1A (Homo sapiens). Description: Biased agonist activity at human recombinant 5-HT1A receptor stably expressed in CHO-K1 cells assessed as inhibition of forskolin-induced cAMP accumulation after 40 mins by LANCE Ultra cAMP kit-based TR-FRET assay relative to serotonin. In kind it is functional, cell-based. To be noted: filed as partial agonist. (In general: Cyclic AMP is a second messenger, typically raised through Gs and lowered through Gi signalling.)

With `CCCN(CCC)C1CCc2cccc(O)c2C1` (racemic) [8-OH-DPAT], in series [1], the minimal effective dose turned out to be 0.16 mg/kg. The Emax in series [2] was determined as 93%; in series [5], 63%. The MED in series [3] came to 0.63 mg/kg. Moreover, the Activity in series [4] is reported as 90%.
